Laboratory results taken from patent US4912227A, “1,2,8,8A-tetrahydrocyclopropa(c)pyrrolo(3,2-e)-indol-4-(5H)-ones and related compounds” (The Upjohn Company, priority 1985, dated 1990).
Converted amounts (≈) assume the structure as drawn.

How the values were obtained:
murine L1210 tumor cells = experiment: cytotoxic activity against murine L1210 tumor cells in suspension (3-day cell growth); type: cell-based; conditions: for IC50 / IC90: Mus musculus, 72 h; for IC50: read-out: L-1210 (3-Day Cell Growth) ID50; for IC90: read-out: L-1210 (3-Day Cell Growth) ID90
Protocol: Many of the compounds of the subject invention have useful cytotoxic activity against murine L1210 tumor cells in suspension, which is a standard model for such tests before the compounds are tested in humans. […] Following is a table showing the results of testing various compounds against L1210 in suspension using standard, well-known procedures. The compounds are identified by an internal designation called "U-" number. The structural identify of the "U-" numbered compounds is shown in Chart I.

P388 leukemia = experiment: antitumor activity in P388 leukemic mice, intraperitoneal; type: in vivo; conditions: for ILS at 0.1 mg/kg: at 0.10 mg./kg.
Source text: These murine test systems are predictive for clinically useful human antitumor agents (see, for example, A. Geldin, J. M. Vendetti, J. S. MacDonald, F. M. Muggia, J. E. Henney and V. T. DeVita, European J. Cancer, Vol. 17, pp. 129-142, 1981; J. M. Vendetti, Cancer Treatment Reports, Vol. 67, pp. 767-772, 1983; and J. M. Vendetti, R. A. Wesley, and J. Plowman, Advances in Pharmacology and Chemotherapy, Vol. 20, pp. 1-20, 1984), and it is therefore presumed that the compounds of the subject invention will be useful in the control and treatment of cancer in humans when given, for example, intravenously in doses of 0.001 to about 10 mg. per kg. of body weight per day, the exact dose depending on the age, weight and condition of the patient, and on the frequency of administration. Following is a table showing the results of testing various compounds intraperitoneally against P388 leukemic mice using standard well-known procedures (In Vivo cancer, Models, NIH Publication No. 84-2635, 1984). The structural identify of the "U-" numbered compounds is shown in Chart I. In the table %ILS refers to percent increase in life span of treated animals over controls.

Proteus vulgaris = experiment: antimicrobial activity
Escherichia coli = experiment: antimicrobial activity
Penicillium oxalicum = experiment: antimicrobial activity
Bacillus subtilis = experiment: antimicrobial activity
Klebsiella pneumonia = experiment: antimicrobial activity
Staphylococcus aureus = experiment: antimicrobial activity
[1] = test system: Salmonella schottmeulerri; experiment: antimicrobial activity
[2] = test system: Saccharomyces pastorianus; experiment: antimicrobial activity
Mycobacterium avium = experiment: antimicrobial activity
Sarcina lutea = experiment: antimicrobial activity
Lewis carcinoma = experiment: lifespan of mice implanted with Lewis carcinoma; type: in vivo
Source text: (§1) These characteristics are advantageous for antitumor agents.

M5076 ovarian sarcoma = experiment: lifespan of mice implanted with M5076 ovarian sarcoma; type: in vivo
Source text: as §1

solid tumors = experiment: activity against solid tumors; set-up: species or system mice; conditions: mouse, in vivo
Source text: as §1

[3] = test system: human lung tumor (Lx-1 carcinoma); experiment: human lung tumor (Lx-1 carcinoma) xenograft in nude mice; type: in vivo
Source text: as §1

[4] = solubility in aqueous solution; type: physicochemical
[5] = stability in aqueous solution; type: physicochemical
B16 melanoma = B16 melanoma implanted subcutaneously in mice, single intravenous dose; type: in vivo
Source text: as §1

[6] = Mus musculus, P388, ip, read-out: P388 % ILS (percent increase in life span over controls)

SMILES: Cc1c[nH]c2c1C13CC1CN(C(=O)c1ccccc1)C3=CC2=O (stereo not drawn) [U-66,866, 1,2,8,8a-tetrahydro-7-methyl-2-benzoylcyclopropa[c]pyrrolo[3,2-e]indol-4(5H)-one]
- IC50 (murine L1210 tumor cells): 1.5 ng/mL (≈ 4.93 nM)
- IC90 (murine L1210 tumor cells): 4.5 ng/mL (≈ 14.8 nM)
- ILS at 12 mg/kg (P388 leukemia; Mus musculus, P388, ip, at 12 mg./kg., read-out: P388 % ILS (percent increase in life span over controls)): 71%

SMILES: Cc1c[nH]c2c1C13CC1CN(C(=O)c1cc4cc(NC(N)=O)ccc4[nH]1)C3=CC2=O (stereo not drawn) [U-69,059, 1,2,8,8a-tetrahydro-7-methyl-2-[[5-ureido-1H-indol-2-yl]carbonyl]cyclopropa[c]pyrrolo[3,2-e]indol-4(5H)-one]
- P388 cures (P388 leukemia; at 0.5 mg./kg.): 4/6

SMILES: COc1c(O)ccc2cc(C(=O)N3CC4CC45C3=CC(=O)c3[nH]cc(C)c35)[nH]c12 (stereo not drawn) [U-67,785, 1,2,8,8a-tetrahydro-7-methyl-2-[(6-hydroxy-7-methoxy-1H-indol-2-yl)carbonyl]cyclopropa[c]pyrrolo[3,2-e]indol-4(5H)-one]
- IC50 (murine L1210 tumor cells): 0.072 ng/mL (≈ 0.185 nM)
- IC90 (murine L1210 tumor cells): 0.19 ng/mL (≈ 0.488 nM)
- ILS at 0.06 mg/kg (P388 leukemia; Mus musculus, P388, ip, at 0.06 mg./kg., read-out: P388 % ILS (percent increase in life span over controls)): 60%

SMILES: Cc1c[nH]c2c1C13CC1CN(C(=O)c1cc4ccccc4[nH]1)C3=CC2=O (stereo not drawn) [U-66,694, 1,2,8,8a-tetrahydro-7-methyl-2-(1H-indol-2-ylcarbonyl)cyclopropa[c]pyrrolo(3,2-c]indol-4(5H)-one]
- activity against Proteus vulgaris (Proteus vulgaris): have activity against
- activity against Escherichia coli (Escherichia coli): have activity against
- activity against Penicillium oxalicum (Penicillium oxalicum): have activity against
- IC50 (murine L1210 tumor cells): 0.15 ng/mL (≈ 0.437 nM)
- IC90 (murine L1210 tumor cells): 0.34 ng/mL (≈ 0.99 nM)
- activity against Bacillus subtilis (Bacillus subtilis): have activity against
- activity against Klebsiella pneumonia (Klebsiella pneumonia): have activity against
- activity against Staphylococcus aureus (Staphylococcus aureus): have activity against
- activity against Salmonella schottmeulerri [1]: have activity against
- activity against Saccharomyces pastorianus [2]: have activity against
- ILS at 0.63 mg/kg (P388 leukemia; Mus musculus, P388, ip, at 0.63 mg./kg., read-out: P388 % ILS (percent increase in life span over controls)): 164%
- activity against Mycobacterium avium (Mycobacterium avium): have activity against
- activity against Sarcina lutea (Sarcina lutea): have activity against

SMILES: Cc1c[nH]c2c1C13CC1CN(C(=O)c1cc4cc(NC#N)ccc4[nH]1)C3=CC2=O (stereo not drawn) [U-69,058, (1,2,8,8a)-tetrahydro-7-methyl-2-2[[5-cyanoamino-1H-indol-2-yl]carbonyl]cyclopropa[c]pyrrolo[3,2-e]indol-4(5H)-one]
- ILS at 0.5 mg/kg (P388 leukemia; Mus musculus, P388, ip, at 0.50 mg./kg., read-out: P388 % ILS (percent increase in life span over controls)): 96%

SMILES: Cc1c[nH]c2c1C13CC1CNC3=CC2=O (stereo not drawn) [U-66,777]
- IC50 (murine L1210 tumor cells): 180 ng/mL (≈ 899 nM)
- IC90 (murine L1210 tumor cells): 920 ng/mL (≈ 4590 nM)

SMILES: Cc1c[nH]c2c1C13CC1CN(S(C)(=O)=O)C3=CC2=O (stereo not drawn) [U-62,736]
- L-1210 (3-Day Cell Growth) ID50 (murine L1210 tumor cells): 39 ng/mL
- L-1210 (3-Day Cell Growth) ID90 (murine L1210 tumor cells): 180 ng/mL

SMILES: Cc1c[nH]c2c1C13CC1CN(C(=O)c1cc4cc(NC(=O)c5ccccc5)ccc4[nH]1)C3=CC2=O (stereo not drawn) [U-68,846, 1,2,8,8a-tetrahydro-7-methyl-2-[[5-benzoylamino-1H-indol-2-yl]carbonyl]cyclopropa[c]pyrrolo[3,2-e]indol-4(5H)-one]
- IC50 (murine L1210 tumor cells): 0.034 ng/mL (≈ 0.0735 nM)
- IC90 (murine L1210 tumor cells): 0.096 ng/mL (≈ 0.208 nM)
- ILS at 0.05 mg/kg (P388 leukemia; Mus musculus, P388, ip, at 0.05 mg./kg., read-out: P388 % ILS (percent increase in life span over controls)): 82%

SMILES: Cc1c[nH]c2c1C13CC1CN(C(=O)c1cc4cc(NC(=O)c5cc6ccccc6[nH]5)ccc4[nH]1)C3=CC2=O (stereo not drawn) [U-68,415]
- IC50 (murine L1210 tumor cells): 0.018 ng/mL (≈ 0.0359 nM)
- IC90 (murine L1210 tumor cells): 0.044 ng/mL (≈ 0.0877 nM)
- P388 cures (P388 leukemia; at 0.05 mg./kg.): 4/6

SMILES: Cc1c[nH]c2c1[C@@]13C[C@@H]1CN(C(=O)c1cc4cc(NC(=O)c5cc6ccccc6o5)ccc4[nH]1)C3=CC2=O [U-73,975]
- activity against Escherichia coli (Escherichia coli): has activity against
- lifespan of mice implanted with Lewis carcinoma (Lewis carcinoma): significantly increased the lifespan
- activity against Klebsiella pneumonia (Klebsiella pneumonia): has activity against
- lifespan of mice implanted with M5076 ovarian sarcoma (M5076 ovarian sarcoma): significantly increased the lifespan
- activity against Staphylococcus aureus (Staphylococcus aureus): has activity against
- activity against solid tumors (solid tumors): particularly good activity against solid tumors
- growth inhibition of human lung tumor (Lx-1 carcinoma) xenograft [3]: significantly inhibited the growth
- solubility in aqueous solution [4]: good solubility
- stability in aqueous solution [5]: good solubility and stability characteristics in aqueous solution
- increase in life span over control (non-drug treated) animals (B16 melanoma): 61%

SMILES: Cc1c[nH]c2c1C13CC1CN(C(=O)c1ccc[nH]1)C3=CC2=O (stereo not drawn) [U-68,819, 1,2,8,8a-tetrahydro-7-methyl-2-(2-pyrrolylcarbonyl)cyclopropa[c]pyrrolo[3,2-e]indol-4(5H)-one]
- IC50 (murine L1210 tumor cells): 0.48 ng/mL (≈ 1.64 nM)
- IC90 (murine L1210 tumor cells): 1.5 ng/mL (≈ 5.11 nM)
- ILS at 1 mg/kg (P388 leukemia; Mus musculus, P388, ip, at 1 mg./kg., read-out: P388 % ILS (percent increase in life span over controls)): 71%

SMILES: CC(=O)N1CC2CC23C1=CC(=O)c1[nH]cc(C)c13 (stereo not drawn) [U-66,664]
- IC50 (murine L1210 tumor cells): 4.8 ng/mL (≈ 19.8 nM)
- IC90 (murine L1210 tumor cells): 18 ng/mL (≈ 74.3 nM)

SMILES: Cc1c[nH]c2c1C13CC1CN(C(=O)c1cc4cc(NC(=O)c5cc6cc(NC(=O)c7ccccc7)ccc6[nH]5)ccc4[nH]1)C3=CC2=O (stereo not drawn) [U-68,880]
- IC50 (murine L1210 tumor cells): 0.008 ng/mL (≈ 0.0129 nM)
- IC90 (murine L1210 tumor cells): 0.019 ng/mL (≈ 0.0306 nM)
- ILS at 0.1 mg/kg (P388 leukemia; [6]): 71%

SMILES: COc1ccc2[nH]c(C(=O)N3CC4CC45C3=CC(=O)c3[nH]cc(C)c35)cc2c1 (stereo not drawn) [U-67,786]
- IC50 (murine L1210 tumor cells): 0.046 ng/mL (≈ 0.123 nM)
- IC90 (murine L1210 tumor cells): 0.1 ng/mL (≈ 0.268 nM)

SMILES: Cc1c[nH]c2c1C13CC1CN(C(=O)c1ccc4ccccc4n1)C3=CC2=O (stereo not drawn) [U-68,749, 1,2,8,8a-tetrahydro-7-methyl-2-(quinolinylcarbonyl)cyclopropa[c]pyrrolo[3,2-e]indol-4(5H)-one]
- IC50 (murine L1210 tumor cells): 3.4 ng/mL (≈ 9.57 nM)
- IC90 (murine L1210 tumor cells): 8.4 ng/mL (≈ 23.6 nM)

SMILES: CC(=O)N1CC(COS(C)(=O)=O)c2c1cc(O)c1[nH]cc(C)c21 (stereo not drawn) [U-66,665]
- activity against Proteus vulgaris (Proteus vulgaris): have activity against
- activity against Escherichia coli (Escherichia coli): have activity against
- activity against Penicillium oxalicum (Penicillium oxalicum): have activity against
- IC50 (murine L1210 tumor cells): 9 ng/mL (≈ 26.6 nM)
- IC90 (murine L1210 tumor cells): 32 ng/mL (≈ 94.6 nM)
- activity against Bacillus subtilis (Bacillus subtilis): have activity against
- activity against Klebsiella pneumonia (Klebsiella pneumonia): have activity against
- activity against Staphylococcus aureus (Staphylococcus aureus): have activity against
- activity against Salmonella schottmeulerri [1]: have activity against
- activity against Saccharomyces pastorianus [2]: have activity against
- activity against Mycobacterium avium (Mycobacterium avium): have activity against
- activity against Sarcina lutea (Sarcina lutea): have activity against

SMILES: Cc1c[nH]c2c1C13CC1CN(C(=O)c1cc4cc(NC(=O)c5cc6cc(NC(N)=O)ccc6[nH]5)ccc4[nH]1)C3=CC2=O (stereo not drawn) [U-69,060, 1,2,8,8a-tetrahydro-7-methyl-2-[[5-[[[5-ureido-1H-indol-2-yl]carbonyl]amino]-1H-indol-2-yl]carbonyl]cyclopropa[c]pyrrolo[3,2-a]indol-4(5H)-one]
- ILS at 0.1 mg/kg (P388 leukemia; [6]): 138%
